Test results as given in ChEMBL document CHEMBL1201862, “PubChem BioAssay data set” (2004).
Active and inactive are the calls of the source.

Assays:
[1] = T. cruzi growth inhibition in host cells, dose response, cell-based, plate reader, dry powder, set 2 (AID 652275); format: functional
[2] = NIH/3T3 fibroblast cytotoxicity, dose response, cytotoxicity control, cell-based, plate reader, dry powder, set 2 (AID 652280); format: functional; details: NIH3T3
[3] = biological target: 1-phosphatidylinositol 4,5-bisphosphate phosphodiesterase beta-3 (Homo sapiens, UniProt Q01970); assay: Fluorescence-based biochemical high throughput dose response assay to identify inhibitors of phospholipase C isozymes (PLC-B3).
[4] = biological target: Induced myeloid leukemia cell differentiation protein Mcl-1 (Homo sapiens, UniProt Q07820); format: functional
Induced myeloid leukemia cell differentiation protein Mcl-1, sequence (Q07820 whole entry): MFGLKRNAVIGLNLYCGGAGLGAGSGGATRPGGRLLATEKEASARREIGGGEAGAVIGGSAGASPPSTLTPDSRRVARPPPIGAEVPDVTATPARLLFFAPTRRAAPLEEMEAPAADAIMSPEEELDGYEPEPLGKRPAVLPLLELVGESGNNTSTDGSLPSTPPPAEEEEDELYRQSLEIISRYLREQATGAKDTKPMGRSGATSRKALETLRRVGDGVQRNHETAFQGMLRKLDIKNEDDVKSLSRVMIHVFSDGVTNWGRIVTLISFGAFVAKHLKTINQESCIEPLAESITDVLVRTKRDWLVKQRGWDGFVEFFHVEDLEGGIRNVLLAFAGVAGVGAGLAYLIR

[5] = biological target: Intestinal-type alkaline phosphatase (Mus musculus, UniProt P24822); assay: PubChem AID 488785; format: functional
[6] = biological target: Intestinal-type alkaline phosphatase (Homo sapiens, UniProt P09923); assay: inhibition of human intestinal alkaline phosphatase – biochemical, dose response (AID 488876); format: functional
Intestinal-type alkaline phosphatase (Homo sapiens, UniProt P09923), sequence (P09923 whole entry): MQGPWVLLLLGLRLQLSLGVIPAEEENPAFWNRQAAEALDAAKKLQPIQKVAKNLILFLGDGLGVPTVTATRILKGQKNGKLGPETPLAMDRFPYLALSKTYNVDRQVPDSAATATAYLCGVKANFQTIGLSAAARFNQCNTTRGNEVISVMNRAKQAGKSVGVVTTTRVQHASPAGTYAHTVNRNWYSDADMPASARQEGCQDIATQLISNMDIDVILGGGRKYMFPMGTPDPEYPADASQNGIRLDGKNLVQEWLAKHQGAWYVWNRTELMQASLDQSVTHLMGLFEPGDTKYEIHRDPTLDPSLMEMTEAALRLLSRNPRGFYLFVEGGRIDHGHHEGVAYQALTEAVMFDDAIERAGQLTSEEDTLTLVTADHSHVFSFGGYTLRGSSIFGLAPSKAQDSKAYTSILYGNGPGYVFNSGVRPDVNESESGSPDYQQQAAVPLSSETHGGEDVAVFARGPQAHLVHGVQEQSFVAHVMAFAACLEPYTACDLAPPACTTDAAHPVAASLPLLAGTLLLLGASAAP

[7] = biological target: 1-phosphatidylinositol 4,5-bisphosphate phosphodiesterase gamma-1 (Homo sapiens, UniProt P19174); assay: Counterscreen for inhibitors of phospholipase C isozymes (PLC-B3): Fluorescence-based biochemical high throughput dose response assay to identify inhibitors of phospholipase C isozymes (PLC-gamma1).
1-phosphatidylinositol 4,5-bisphosphate phosphodiesterase gamma-1, sequence (P19174 whole entry): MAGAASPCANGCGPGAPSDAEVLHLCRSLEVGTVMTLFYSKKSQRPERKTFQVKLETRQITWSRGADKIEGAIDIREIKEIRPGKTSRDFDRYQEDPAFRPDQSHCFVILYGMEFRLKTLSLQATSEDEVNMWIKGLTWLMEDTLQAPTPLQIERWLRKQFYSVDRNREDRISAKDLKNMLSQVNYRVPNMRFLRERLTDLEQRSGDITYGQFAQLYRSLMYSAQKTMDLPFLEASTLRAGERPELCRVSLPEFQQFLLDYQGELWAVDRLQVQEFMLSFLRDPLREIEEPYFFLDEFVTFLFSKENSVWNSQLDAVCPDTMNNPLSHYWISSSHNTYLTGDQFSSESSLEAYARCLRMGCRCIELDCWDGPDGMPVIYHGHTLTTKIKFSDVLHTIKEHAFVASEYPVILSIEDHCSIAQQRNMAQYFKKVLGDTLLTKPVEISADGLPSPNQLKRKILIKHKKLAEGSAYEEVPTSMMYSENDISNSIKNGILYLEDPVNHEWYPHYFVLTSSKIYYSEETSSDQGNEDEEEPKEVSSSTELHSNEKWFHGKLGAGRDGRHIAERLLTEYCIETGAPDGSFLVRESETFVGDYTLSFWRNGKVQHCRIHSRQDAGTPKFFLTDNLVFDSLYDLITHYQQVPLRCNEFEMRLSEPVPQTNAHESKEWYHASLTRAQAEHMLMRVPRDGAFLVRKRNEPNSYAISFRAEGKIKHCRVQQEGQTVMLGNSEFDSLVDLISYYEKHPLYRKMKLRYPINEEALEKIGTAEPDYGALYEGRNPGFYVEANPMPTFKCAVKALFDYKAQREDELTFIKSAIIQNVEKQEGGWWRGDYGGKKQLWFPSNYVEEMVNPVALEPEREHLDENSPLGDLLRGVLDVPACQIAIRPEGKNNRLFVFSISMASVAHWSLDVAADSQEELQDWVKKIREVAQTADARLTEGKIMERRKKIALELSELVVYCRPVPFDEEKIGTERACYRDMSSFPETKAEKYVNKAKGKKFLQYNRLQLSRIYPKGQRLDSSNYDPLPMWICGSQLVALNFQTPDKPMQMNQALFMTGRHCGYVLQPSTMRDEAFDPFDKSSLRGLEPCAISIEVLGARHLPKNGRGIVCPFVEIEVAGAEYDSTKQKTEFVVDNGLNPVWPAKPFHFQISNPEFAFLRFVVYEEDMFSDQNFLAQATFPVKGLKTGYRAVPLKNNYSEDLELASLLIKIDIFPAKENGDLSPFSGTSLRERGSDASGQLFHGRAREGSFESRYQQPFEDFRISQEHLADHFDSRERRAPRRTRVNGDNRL

ORF 73 = ORF 73 (Human herpesvirus 8, UniProt O40947); assay: inhibitors of C-LANA binding to LBS DNA, dose response, biochemical, fluorescence polarization, cherry-picked samples (AID 504725); parameters: species or system Human gammaherpesvirus 8;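 also: fluorescence polarization of a labeled DNA duplex reporting LANA DNA binding; potency is for inhibitors that block LANA binding to the DNA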
ORF 73, sequence (O40947 whole entry): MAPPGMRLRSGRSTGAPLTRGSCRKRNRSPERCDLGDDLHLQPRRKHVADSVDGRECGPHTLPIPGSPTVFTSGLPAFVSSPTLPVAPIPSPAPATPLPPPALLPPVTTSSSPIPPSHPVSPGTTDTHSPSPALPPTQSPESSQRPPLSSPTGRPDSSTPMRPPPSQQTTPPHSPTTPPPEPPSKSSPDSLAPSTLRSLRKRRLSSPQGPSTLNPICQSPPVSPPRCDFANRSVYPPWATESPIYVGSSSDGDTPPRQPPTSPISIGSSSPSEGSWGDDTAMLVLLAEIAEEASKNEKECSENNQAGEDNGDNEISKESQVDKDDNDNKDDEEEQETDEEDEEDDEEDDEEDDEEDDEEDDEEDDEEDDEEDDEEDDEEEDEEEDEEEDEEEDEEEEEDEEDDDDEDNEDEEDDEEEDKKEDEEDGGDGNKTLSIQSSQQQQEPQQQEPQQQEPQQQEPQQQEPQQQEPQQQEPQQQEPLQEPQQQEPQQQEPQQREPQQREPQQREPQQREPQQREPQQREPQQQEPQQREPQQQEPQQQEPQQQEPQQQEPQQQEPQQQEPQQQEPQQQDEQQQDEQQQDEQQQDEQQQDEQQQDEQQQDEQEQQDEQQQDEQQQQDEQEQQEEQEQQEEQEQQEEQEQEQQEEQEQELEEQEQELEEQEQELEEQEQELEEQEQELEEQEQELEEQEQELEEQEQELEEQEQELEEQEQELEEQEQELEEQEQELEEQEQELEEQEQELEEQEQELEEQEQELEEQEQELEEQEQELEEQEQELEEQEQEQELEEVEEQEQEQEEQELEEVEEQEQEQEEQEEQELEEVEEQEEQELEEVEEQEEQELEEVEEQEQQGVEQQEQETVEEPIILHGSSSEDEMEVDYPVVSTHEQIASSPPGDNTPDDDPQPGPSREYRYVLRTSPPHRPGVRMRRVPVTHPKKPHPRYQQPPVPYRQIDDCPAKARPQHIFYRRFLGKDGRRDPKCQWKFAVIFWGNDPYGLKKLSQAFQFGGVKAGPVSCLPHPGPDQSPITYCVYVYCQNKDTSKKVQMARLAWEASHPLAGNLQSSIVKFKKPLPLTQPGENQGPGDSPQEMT

[8] = biological target: T1, Alkaline phosphatase, tissue-nonspecific isozyme (Homo sapiens, UniProt P05186); assay: TNAP enzyme inhibition by screening hits, dose response, selectivity assay for mouse IAP inhibitor project, biochemical, human TNAP, uHTS hits (AID 488906); format: functional
T1 sequence (P05186 whole entry): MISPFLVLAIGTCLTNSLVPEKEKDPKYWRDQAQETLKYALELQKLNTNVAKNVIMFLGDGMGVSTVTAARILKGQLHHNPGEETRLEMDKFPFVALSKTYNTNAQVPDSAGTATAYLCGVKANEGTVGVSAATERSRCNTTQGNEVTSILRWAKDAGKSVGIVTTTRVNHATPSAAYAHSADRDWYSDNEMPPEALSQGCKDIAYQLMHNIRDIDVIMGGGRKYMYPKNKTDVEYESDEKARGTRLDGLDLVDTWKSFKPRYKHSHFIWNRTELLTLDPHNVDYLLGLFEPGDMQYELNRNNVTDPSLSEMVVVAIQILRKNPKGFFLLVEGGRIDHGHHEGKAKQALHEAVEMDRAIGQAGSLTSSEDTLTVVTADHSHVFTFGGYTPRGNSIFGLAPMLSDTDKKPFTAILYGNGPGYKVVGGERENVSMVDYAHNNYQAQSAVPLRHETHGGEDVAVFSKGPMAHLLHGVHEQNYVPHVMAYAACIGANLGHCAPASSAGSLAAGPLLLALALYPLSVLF

[9] = biological target: Histone-lysine N-methyltransferase NSD2 (Homo sapiens, UniProt O96028); format: biochemical
Histone-lysine N-methyltransferase NSD2, sequence (O96028 whole entry): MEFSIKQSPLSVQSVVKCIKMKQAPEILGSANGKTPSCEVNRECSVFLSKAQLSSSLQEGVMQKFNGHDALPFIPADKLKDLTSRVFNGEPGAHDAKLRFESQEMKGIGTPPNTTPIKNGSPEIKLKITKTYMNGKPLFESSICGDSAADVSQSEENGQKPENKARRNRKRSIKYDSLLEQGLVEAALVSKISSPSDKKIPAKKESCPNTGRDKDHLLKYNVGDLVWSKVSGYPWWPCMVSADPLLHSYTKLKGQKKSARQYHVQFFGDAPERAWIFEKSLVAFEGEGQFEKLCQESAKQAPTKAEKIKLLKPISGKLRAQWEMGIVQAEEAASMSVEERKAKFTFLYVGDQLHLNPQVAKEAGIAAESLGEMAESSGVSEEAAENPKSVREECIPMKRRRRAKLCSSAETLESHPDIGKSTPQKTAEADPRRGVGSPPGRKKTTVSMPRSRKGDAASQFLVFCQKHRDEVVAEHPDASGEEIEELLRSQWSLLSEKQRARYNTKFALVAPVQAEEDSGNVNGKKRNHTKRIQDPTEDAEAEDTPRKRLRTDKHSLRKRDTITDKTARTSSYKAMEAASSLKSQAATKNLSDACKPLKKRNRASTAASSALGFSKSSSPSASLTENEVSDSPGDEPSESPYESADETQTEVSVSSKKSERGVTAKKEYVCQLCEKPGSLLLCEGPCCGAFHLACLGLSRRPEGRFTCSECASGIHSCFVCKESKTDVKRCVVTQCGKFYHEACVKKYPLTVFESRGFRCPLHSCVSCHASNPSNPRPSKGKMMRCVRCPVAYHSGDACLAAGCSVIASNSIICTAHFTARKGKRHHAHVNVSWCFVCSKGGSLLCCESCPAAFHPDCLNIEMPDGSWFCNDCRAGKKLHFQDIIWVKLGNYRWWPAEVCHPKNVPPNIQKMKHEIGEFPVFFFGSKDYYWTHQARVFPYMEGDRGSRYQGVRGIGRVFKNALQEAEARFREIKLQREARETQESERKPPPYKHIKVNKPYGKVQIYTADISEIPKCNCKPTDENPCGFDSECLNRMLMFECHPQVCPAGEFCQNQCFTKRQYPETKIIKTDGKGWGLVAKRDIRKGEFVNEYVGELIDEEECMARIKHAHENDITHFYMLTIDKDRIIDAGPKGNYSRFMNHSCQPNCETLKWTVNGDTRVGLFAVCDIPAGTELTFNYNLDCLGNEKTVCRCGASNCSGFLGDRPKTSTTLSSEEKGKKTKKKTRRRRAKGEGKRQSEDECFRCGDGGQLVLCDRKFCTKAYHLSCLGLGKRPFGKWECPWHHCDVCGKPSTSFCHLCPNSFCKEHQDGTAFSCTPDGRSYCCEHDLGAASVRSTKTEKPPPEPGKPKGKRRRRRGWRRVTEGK

[10] = control 3'UTR Renilla luciferase suppression, dose response, counter-screen for Shn3 inhibitor project, cell-based, Clone20-Shn3RL, cherry-picked (AID 624133); format: functional
[11] = Shn3 3'UTR reporter inhibitors, dose response, cell-based, Clone20 osteoblasts, firefly luciferase, cherry-picked (AID 624132); format: functional;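 also: firefly luciferase luminescence from reporter carrying the Shn3 3'UTR in osteoblasts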
[12] = HepG2 cell cytotoxicity, dose response, cytotoxicity control for Shn3 inhibitor project, CellTiter-Glo, cherry-picked (AID 624134); format: functional, cell-based
[13] = reduction of Shn3 3'UTR firefly luciferase signal, dose response, Schnurri-3 inhibitor project, cell-based, Clone20 osteoblasts, cherry-pick, set 2 (AID 720490); format: functional;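 also: actives lower the luminescence signal as inhibitors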
Caspase-7 = Caspase-7 (Homo sapiens, UniProt P55210); assay: human caspase-7 inhibitors, dose response, selectivity assay for caspase-6 inhibitor project, biochemical, DEVD-R110 fluorescence, cherry-pick (AID 743295)
Caspase-6 = Caspase-6 (Homo sapiens, UniProt P55212); assay: human caspase-6 inhibitors, dose response, biochemical, VEID-R110 fluorescence, cherry-pick (AID 720632)
[14] = YAP1 pathway inhibition via CTGF transcript levels, dose response, cell-based, DLD1 colon cancer, RT-qPCR, cherry-pick (AID 1053122); format: functional; details: Cancer cell lines
[15] = HepG2 cell cytotoxicity, dose response, cytotoxicity control, luminescence plate reader, powder samples, set 2 (AID 651860); format: functional, cell-based
[16] = biological target: T2, Replicative DNA helicase DnaB (Mycobacterium tuberculosis, UniProt P9WMR3); assay: DnaB intein splicing inhibitors, dose response, biochemical, cell-free fluorescence (AID 449749); format: functional
T2 sequence (P9WMR3 whole entry): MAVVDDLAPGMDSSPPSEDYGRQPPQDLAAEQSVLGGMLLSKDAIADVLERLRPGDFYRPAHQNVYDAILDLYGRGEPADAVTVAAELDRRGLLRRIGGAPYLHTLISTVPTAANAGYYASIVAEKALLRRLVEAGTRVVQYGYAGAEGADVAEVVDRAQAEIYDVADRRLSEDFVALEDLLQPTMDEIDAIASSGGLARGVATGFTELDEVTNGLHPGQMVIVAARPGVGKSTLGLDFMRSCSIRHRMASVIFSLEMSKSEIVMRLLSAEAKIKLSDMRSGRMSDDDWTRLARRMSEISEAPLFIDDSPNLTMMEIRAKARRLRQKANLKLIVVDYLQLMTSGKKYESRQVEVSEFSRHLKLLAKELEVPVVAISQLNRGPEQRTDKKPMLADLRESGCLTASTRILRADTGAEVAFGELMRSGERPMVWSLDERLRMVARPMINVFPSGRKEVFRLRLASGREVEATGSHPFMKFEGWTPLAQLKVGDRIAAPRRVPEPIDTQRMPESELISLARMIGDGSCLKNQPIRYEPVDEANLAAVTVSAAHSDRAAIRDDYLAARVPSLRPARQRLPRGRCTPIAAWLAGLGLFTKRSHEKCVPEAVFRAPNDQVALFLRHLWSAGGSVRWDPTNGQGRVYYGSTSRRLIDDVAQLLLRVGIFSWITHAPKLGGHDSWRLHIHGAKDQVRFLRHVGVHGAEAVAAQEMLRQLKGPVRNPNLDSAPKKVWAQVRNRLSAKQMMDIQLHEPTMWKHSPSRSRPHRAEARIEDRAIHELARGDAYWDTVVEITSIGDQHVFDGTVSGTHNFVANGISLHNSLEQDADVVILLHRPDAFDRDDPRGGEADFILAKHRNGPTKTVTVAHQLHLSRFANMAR

Protein RecA = biological target: T3, Protein RecA (Mycobacterium tuberculosis, UniProt P9WHJ3); assay: Fluorescence Cell-Free Homogeneous Dose Retest to Identify Inhibitors of RecA-Intein Splicing Activity. [Related pubchem assays (depositor defined):AID2097, AID2223, AID489010, AID492950]; format: functional
T3 sequence (P9WHJ3 whole entry): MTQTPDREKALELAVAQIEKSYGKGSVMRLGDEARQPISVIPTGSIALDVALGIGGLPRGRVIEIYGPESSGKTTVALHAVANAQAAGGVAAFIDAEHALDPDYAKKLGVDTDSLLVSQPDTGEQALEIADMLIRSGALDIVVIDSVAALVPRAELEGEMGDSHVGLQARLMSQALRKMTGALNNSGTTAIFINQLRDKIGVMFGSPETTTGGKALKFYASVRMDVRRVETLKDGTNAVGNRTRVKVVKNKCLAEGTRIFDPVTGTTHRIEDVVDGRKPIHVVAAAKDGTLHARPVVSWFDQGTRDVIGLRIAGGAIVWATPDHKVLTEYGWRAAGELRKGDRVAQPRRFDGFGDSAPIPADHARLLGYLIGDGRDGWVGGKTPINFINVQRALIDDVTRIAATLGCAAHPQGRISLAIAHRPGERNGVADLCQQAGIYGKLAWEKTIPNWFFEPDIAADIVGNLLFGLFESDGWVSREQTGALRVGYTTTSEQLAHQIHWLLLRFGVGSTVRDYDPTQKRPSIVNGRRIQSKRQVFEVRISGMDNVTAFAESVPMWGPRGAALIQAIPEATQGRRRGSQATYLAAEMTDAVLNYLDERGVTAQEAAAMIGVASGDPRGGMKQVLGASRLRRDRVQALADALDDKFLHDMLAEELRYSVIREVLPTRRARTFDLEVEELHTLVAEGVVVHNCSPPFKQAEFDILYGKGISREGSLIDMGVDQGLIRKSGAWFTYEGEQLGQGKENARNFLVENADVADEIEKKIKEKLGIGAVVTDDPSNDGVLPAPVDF

[17] = biological target: Tyrosyl-DNA phosphodiesterase 2 (Homo sapiens, UniProt O95551); assay: human TDP2 enzyme inhibitors, dose response, biochemical, epi absorbance, IC50 (AID 743297)
Tyrosyl-DNA phosphodiesterase 2, sequence (O95551 whole entry): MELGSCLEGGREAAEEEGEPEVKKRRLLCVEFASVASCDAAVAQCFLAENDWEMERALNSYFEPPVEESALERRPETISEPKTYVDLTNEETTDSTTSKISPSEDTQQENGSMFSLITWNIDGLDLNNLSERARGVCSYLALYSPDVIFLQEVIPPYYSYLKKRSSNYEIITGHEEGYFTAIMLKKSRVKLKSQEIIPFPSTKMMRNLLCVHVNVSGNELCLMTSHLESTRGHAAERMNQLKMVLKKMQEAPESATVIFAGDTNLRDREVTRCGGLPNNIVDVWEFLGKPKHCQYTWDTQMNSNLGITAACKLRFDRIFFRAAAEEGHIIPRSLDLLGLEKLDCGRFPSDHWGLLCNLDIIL

[18] = biological target: T4, Apoptotic protease-activating factor 1 (Homo sapiens, UniProt O14727); format: functional
T4 sequence (O14727 whole entry): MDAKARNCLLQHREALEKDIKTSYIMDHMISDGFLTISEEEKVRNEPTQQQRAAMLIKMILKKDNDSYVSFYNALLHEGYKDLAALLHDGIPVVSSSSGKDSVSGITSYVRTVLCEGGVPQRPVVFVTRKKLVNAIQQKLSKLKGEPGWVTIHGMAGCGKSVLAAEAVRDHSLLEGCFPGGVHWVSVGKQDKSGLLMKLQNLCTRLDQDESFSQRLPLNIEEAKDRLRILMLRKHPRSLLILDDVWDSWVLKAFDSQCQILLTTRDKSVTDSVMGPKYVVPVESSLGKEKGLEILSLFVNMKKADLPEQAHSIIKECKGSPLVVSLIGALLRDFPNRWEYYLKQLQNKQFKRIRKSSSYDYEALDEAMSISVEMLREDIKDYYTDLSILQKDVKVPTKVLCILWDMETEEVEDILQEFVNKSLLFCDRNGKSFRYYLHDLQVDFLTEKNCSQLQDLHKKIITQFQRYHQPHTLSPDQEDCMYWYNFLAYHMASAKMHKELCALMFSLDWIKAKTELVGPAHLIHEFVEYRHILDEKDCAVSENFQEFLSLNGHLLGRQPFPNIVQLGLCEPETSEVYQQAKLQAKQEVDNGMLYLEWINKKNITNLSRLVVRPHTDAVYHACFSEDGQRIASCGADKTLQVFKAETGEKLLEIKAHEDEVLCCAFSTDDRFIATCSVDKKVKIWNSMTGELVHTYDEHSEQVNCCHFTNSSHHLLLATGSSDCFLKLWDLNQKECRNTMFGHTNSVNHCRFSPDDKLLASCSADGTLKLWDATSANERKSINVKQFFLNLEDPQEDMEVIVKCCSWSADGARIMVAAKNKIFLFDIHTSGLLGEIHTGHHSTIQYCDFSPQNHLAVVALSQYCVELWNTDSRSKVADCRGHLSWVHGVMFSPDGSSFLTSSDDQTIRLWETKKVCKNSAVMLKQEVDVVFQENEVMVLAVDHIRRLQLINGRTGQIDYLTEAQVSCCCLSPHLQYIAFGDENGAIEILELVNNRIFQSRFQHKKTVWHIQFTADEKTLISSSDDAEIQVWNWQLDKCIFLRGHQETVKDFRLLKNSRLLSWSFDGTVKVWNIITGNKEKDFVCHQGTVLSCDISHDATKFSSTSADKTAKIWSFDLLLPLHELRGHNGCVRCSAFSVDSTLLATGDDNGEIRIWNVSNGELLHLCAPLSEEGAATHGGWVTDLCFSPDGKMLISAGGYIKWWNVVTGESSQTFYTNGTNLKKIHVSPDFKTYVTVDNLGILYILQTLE

[19] = A549 cell cytotoxicity, dose response, cytotoxicity control, CellTiter-Glo luminescence, dry powder, set 3 (AID 743146); format: functional, cell-based
[20] = HEK293 cell cytotoxicity, dose response, cytotoxicity control, ATP luminescence, dry powder, Set6 (AID 743142); format: functional, cell-based
[21] = A375 melanoma cell cytotoxicity, dose response, counter-screen for MITF inhibitor project, CellTiter-Glo luminescence, dry powder, set 2 (AID 624489); format: functional, cell-based; details: A-375;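 also: actives are compounds lowering A375 viability meaning general cytotoxicity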

CC(C)(O)C#Cc1cccc(-c2nc(C(=O)NCc3ccc4c(c3)OCO4)cc3c2[C@@H](CCO)N([S+]([O-])C(C)(C)C)C3)c1 (stereo not given in full)
AC50 [1]: 3.93 µM (active)
AC50 [2]: 12.1 µM (active)

O=C(O)CCCN1C(=O)/C(=C/C=C/c2ccco2)SC1=S
IC50 [3]: > 122 µM (inactive)
IC50 [4]: 19.3 µM (not active)
IC50 [5]: 1.4 µM (active)
IC50 [6]: > 100 µM (inactive)
IC50 [7]: > 122 µM (inactive)
AC50 (ORF 73): 175 µM (active)
IC50 [8]: 39.1 µM (active)
AC50 [9]: 2.42 µM (active)

CCn1c(CNC(=O)c2cc(OC)c(OC)c(OC)c2)cc2cc(C)ccc21
AC50 [10]: 13.4 µM (active)
AC50 [11]: 2.52 µM (active)
AC50 [12]: > 70 µM (inactive)
AC50 [13]: 3.79 µM (active)

O=C(O)CCc1ccc(-c2ccc(Br)cc2)n1CC(=O)O
AC50 (Caspase-7): > 70 µM (inactive)
AC50 (Caspase-6): 3.5 µM (active)

C[C@@H]1CN([C@H](C)CO)S(=O)(=O)c2ccc(C#Cc3cccc(F)c3)cc2O[C@@H]1CN(C)S(=O)(=O)c1cn(C)cn1
AC50 [14]: 3.47 µM (active)

O=C(O)[C@H]1CCCC[C@H]1C(=O)NC(CN1C(=O)c2ccccc2C1=O)c1ccccc1 (stereo not given in full)
AC50 [15]: > 52 µM (inactive)

Cc1ccc(C(C[N+](=O)[O-])c2c(C)[nH]n(-c3ccccc3)c2=O)cc1 (stereo not given)
AC50 [16]: 3.52 µM (active)
EC50 (Protein RecA): 3.16 µM (active)
IC50 [17]: 24.2 µM (inactive)
IC50 [18]: 24.1 µM (active)

O=C(CCNC(=O)c1ccc(Cl)cc1)N[C@@H]1CCCc2ccccc21
AC50 [19]: > 52 µM (inactive)
AC50 [20]: 4.12 µM (active)

C=CCNC1=C(NCCCN2CCOCC2)C(=O)c2ccccc2C1=O
AC50 [21]: > 70 µM (inactive)
